The text below walks through data of patent US6924278B2, “Aroyl-piperazine derivatives, their preparation and their use as tachykinin antagonists” (Fujisawa Pharmaceutical Co., Ltd., priority 1997, dated 2005).

SMILES strings stand for the structures.

The term melting point denotes the temperature, or range, at which the solid turns liquid.

In turn, `Cl.Cl.O=C(c1cc(C(F)(F)F)cc(C(F)(F)F)c1)N1CCN(CC#Cc2cccnc2)C[C@H]1Cc1c[nH]c2ccccc12` came in with a melting point of 180 to 190 °C.
The value for `Cl.Cl.O=C(c1cc(C(F)(F)F)cc(C(F)(F)F)c1)N1CCN(CC#Cc2cccnc2)C[C@H]1Cc1ccc2ccccc2c1` was 140 to 150 °C; that for `Cl.Cl.O=C(c1cc(C(F)(F)F)cc(C(F)(F)F)c1)N1CCN(C/C=C\c2cccnc2)C[C@H]1Cc1ccc2ccccc2c1` was 130 to 150 °C.
The same measure for `Cl.Cl.O=C(c1cc(C(F)(F)F)cc(C(F)(F)F)c1)N1CCN(CCCc2cccnc2)C[C@H]1Cc1ccc2ccccc2c1`: 138 to 148 °C; for `Cc1ccc(C[C@@H]2CN(CC#CCN3CCSCC3)CCN2C(=O)c2cc(Cl)cc(Cl)c2)cc1C.Cl.Cl`: 128 °C (dec.).
The same measure for `Cl.Cl.O=C(c1cc(Cl)cc(Cl)c1)N1CCN(CC#CCN2CCSCC2)C[C@H]1Cc1c[nH]c2ccccc12`: 175 °C (dec.); for `Cl.Cl.O=C(c1cc(Cl)cc(Cl)c1)N1CCN(CC#CCN2CCOCC2)C[C@H]1Cc1c[nH]c2ccccc12`: 165 °C (dec.); for `Cl.Cl.O=C(c1cc(Cl)cc(Cl)c1)N1CCN(CC#CCN2CCOCC2)C[C@H]1Cc1ccc2ccccc2c1`: 171 °C (dec.).
Turning to `Cl.Cl.O=C(c1cc(Cl)cc(Cl)c1)N1CCN(CC#CCN2CCSCC2)C[C@H]1Cc1ccc(C(F)(F)F)cc1`, the melting point is 172 °C (dec.).
The value for `Cl.Cl.O=C(c1cc(Cl)cc(Cl)c1)N1CCN(CC#CCN2CCOCC2)C[C@H]1Cc1ccc(C(F)(F)F)cc1` was 186 °C (dec.).
The same measure for `COc1ccc(C#CCN2CCN(C(=O)c3cc(C(F)(F)F)cc(C(F)(F)F)c3)[C@H](Cc3ccc(C)c(C)c3)C2)cn1.Cl.Cl`: 160 to 170 °C.
Consider `COc1ccc(C#CCN2CCN(C(=O)c3cc(C(F)(F)F)cc(C(F)(F)F)c3)[C@H](Cc3c[nH]c4ccccc34)C2)cn1.Cl.Cl`, for which the melting point was in the range of 183 to 189 °C.
The same measure for `Cc1ccc(C[C@@H]2CN(CCCc3ccccn3)CCN2C(=O)c2cc(C(F)(F)F)cc(C(F)(F)F)c2)cc1C.Cl.Cl`: 120 to 130 °C.
The same measure for `Cl.Cl.O=C(c1cc(C(F)(F)F)cc(C(F)(F)F)c1)N1CCN(CCCc2cccnc2)C[C@H]1Cc1c[nH]c2ccccc12`: 150 to 160 °C; for `Cl.Cl.O=C(c1cc(C(F)(F)F)cc(C(F)(F)F)c1)N1CCN(CCCCc2cccnc2)C[C@H]1Cc1c[nH]c2ccccc12`: 140 to 145 °C; for `Cc1ccc(C[C@@H]2CN(CC#CCN3CCOC[C@@H]3CC(C)C)CCN2C(=O)c2cc(C(F)(F)F)cc(C(F)(F)F)c2)cc1C.Cl.Cl`: 125 to 138 °C.
In the case of `COc1ccncc1C#CCN1CCN(C(=O)c2cc(C(F)(F)F)cc(C(F)(F)F)c2)[C@H](Cc2c[nH]c3ccccc23)C1.Cl.Cl`, the melting point lay in the range of 162 to 167 °C.
The value for `COc1ccncc1C#CCN1CCN(C(=O)c2cc(C(F)(F)F)cc(C(F)(F)F)c2)[C@H](Cc2ccc(C)c(C)c2)C1.Cl.Cl` was 150 to 153 °C.
The same measure for `COc1ccncc1CCCN1CCN(C(=O)c2cc(C(F)(F)F)cc(C(F)(F)F)c2)[C@H](Cc2c[nH]c3ccccc23)C1.Cl.Cl`: 165 to 170 °C.
In turn, `COc1ccncc1CCCN1CCN(C(=O)c2cc(C(F)(F)F)cc(C(F)(F)F)c2)[C@H](Cc2ccc(C)c(C)c2)C1.Cl.Cl` came in with a melting point of 159 to 168 °C.
The value for `Cl.Cl.Nc1ccc(C#CCN2CCN(C(=O)c3cc(C(F)(F)F)cc(C(F)(F)F)c3)[C@H](Cc3c[nH]c4ccccc34)C2)cn1` was 190 to 195 °C; that for `Cc1ccc(C[C@@H]2CN(CC#Cc3ccc(N)nc3)CCN2C(=O)c2cc(C(F)(F)F)cc(C(F)(F)F)c2)cc1C.Cl.Cl` was 183 to 189 °C; that for `Cc1ccc(C[C@@H]2CN(C/C=C\c3cccnc3)CCN2C(=O)c2cc(C(F)(F)F)cc(C(F)(F)F)c2)cc1C.Cl.Cl` was 170 to 174 °C.
The value for `COc1ccc(CCCN2CCN(C(=O)c3cc(C(F)(F)F)cc(C(F)(F)F)c3)[C@H](Cc3ccc(C)c(C)c3)C2)cn1.Cl.Cl` was 127 to 137 °C; that for `COc1ccc(CCCN2CCN(C(=O)c3cc(C(F)(F)F)cc(C(F)(F)F)c3)[C@H](Cc3c[nH]c4ccccc34)C2)cn1.Cl.Cl` was 195 to 200 °C.
The same measure for `Cl.Cl.O=C(c1cc(C(F)(F)F)cc(C(F)(F)F)c1)N1CCN(CCCCc2ccccn2)C[C@H]1Cc1c[nH]c2ccccc12`: 155 to 160 °C; for `Cc1ccc(C[C@@H]2CN(CCCn3cccn3)CCN2C(=O)c2cc(C(F)(F)F)cc(C(F)(F)F)c2)cc1C.Cl`: 73 to 75 °C; for `Cl.Cl.O=C(c1cc(C(F)(F)F)cc(C(F)(F)F)c1)N1CCN(CC#Cc2ccccn2)C[C@H]1Cc1c[nH]c2ccccc12`: 160 to 166 °C.
Molecule `Cl.Cl.O=C(c1cc(C(F)(F)F)cc(C(F)(F)F)c1)N1CCN(CCC#Cc2cccnc2)C[C@H]1Cc1c[nH]c2ccccc12` returned a melting point of 175 to 185 °C.
In the case of `CCOC[C@H]1COCCN1CC#CCN1CCN(C(=O)c2cc(C(F)(F)F)cc(C(F)(F)F)c2)[C@H](Cc2ccc(C)c(C)c2)C1.Cl.Cl`, the melting point lay within 155 to 160 °C.
The value for `Cc1ccc(C[C@@H]2CN(CC#CCN3CCOC[C@@H]3CO)CCN2C(=O)c2cc(C(F)(F)F)cc(C(F)(F)F)c2)cc1C.Cl.Cl` was 130 to 150 °C; that for `COC[C@@H]1COCCN1C/C=C/CN1CCN(C(=O)c2cc(C(F)(F)F)cc(C(F)(F)F)c2)[C@H](Cc2ccc(C)c(C)c2)C1.Cl.Cl` was 240 to 250 °C; that for `Cc1ccc(C[C@@H]2CN(CC#CCN3CCOC[C@H]3C(=O)N(C)C)CCN2C(=O)c2cc(C(F)(F)F)cc(C(F)(F)F)c2)cc1C.Cl.Cl` was 150 to 160 °C.
The same measure for `CC[C@@H]1COCCN1CC#CCN1CCN(C(=O)c2cc(C(F)(F)F)cc(C(F)(F)F)c2)[C@H](Cc2c[nH]c3ccccc23)C1.Cl.Cl`: 176 to 180 °C; for `COC[C@H]1CCCN1CC#CCN1CCN(C(=O)c2cc(C(F)(F)F)cc(C(F)(F)F)c2)[C@H](Cc2c[nH]c3ccccc23)C1.Cl.Cl`: 190 to 195 °C; for `COC[C@@H]1COCCN1CCCN1CCN(C(=O)c2cc(C(F)(F)F)cc(C(F)(F)F)c2)[C@H](Cc2ccc(C)c(C)c2)C1.Cl.Cl`: 80 to 100 °C.
Take `COCC1CN(CCN2CCN(C(=O)c3cc(C(F)(F)F)cc(C(F)(F)F)c3)[C@H](Cc3ccc(C)c(C)c3)C2)CCO1.Cl.Cl` (stereo partly drawn): the melting point is 150 to 154 °C.
The same measure for `COC[C@H]1COCCN1CCN1CCN(C(=O)c2cc(C(F)(F)F)cc(C(F)(F)F)c2)[C@H](Cc2c[nH]c3ccccc23)C1.Cl.Cl`: 175 to 185 °C; for `C[C@H]1COC[C@H](C)N1CCN1CCN(C(=O)c2cc(C(F)(F)F)cc(C(F)(F)F)c2)[C@H](Cc2c[nH]c3ccccc23)C1.Cl.Cl`: 170 to 180 °C.
The value for `COc1cccc(CC2CN(CC#CCN3CCOCC3(C)C)CCN2C(=O)c2cc(C(F)(F)F)cc(C(F)(F)F)c2)c1OC.Cl.Cl` (stereo not drawn) was 170 °C.
Take `CNc1cc(C(=O)N2CCN(CC#CCN3CCOCC3(C)C)C[C@H]2Cc2c[nH]c3ccccc23)cc(C(F)(F)F)c1.Cl.Cl`: the melting point lay in the range of 215 to 230 °C.
The value for `CN(C)c1cccc(CC2CN(CC#CCN3CCOCC3(C)C)CCN2C(=O)c2cc(C(F)(F)F)cc(C(F)(F)F)c2)c1.Cl.Cl.Cl` (stereo not drawn) was 205 to 210 °C.
